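Growth conditions: 96-well plates. Treatment: test compound, 48 hours, 5 concentrations. Analysis: linear interpolation between bracketing concentrations; unreached endpoints set to highest concentration. GI50 is the concentration that inhibits growth by half. At the TGI there is no net growth.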
Assays:
Experiment in all cases: inhibition of tumour cell growth, NCI panel, 48 h
[1] = test system: OVCAR-5 ovarian
[2] = test system: T-47D breast
[3] = test system: K-562 leukemia
[4] = test system: UACC-257 melanoma
[5] = test system: SK-MEL-28 melanoma
[6] = test system: IGROV1 ovarian
[7] = test system: OVCAR-3 ovarian
[8] = test system: UACC-62 melanoma

| Compound | TGI [1] [µM] | TGI [2] [µM] | TGI [3] [µM] | TGI [4] [µM] | TGI [5] [µM] | GI50 [6] [µM] | TGI [6] [µM] | TGI [7] [µM] | TGI [8] [µM] | GI50 [1] [µM] | GI50 [2] [µM] | GI50 [3] [µM] | GI50 [4] [µM] | GI50 [5] [µM] | GI50 [7] [µM] | GI50 [8] [µM] |
| --- | --- | --- | --- | --- | --- | --- | --- | --- | --- | --- | --- | --- | --- | --- | --- | --- |
| CCOC(=O)c1cnc2oc3ccc(O)cc3c2c1-c1ccccc1 | > 100 | > 100 | > 100 | > 100 | > 100 | 2.53 | > 100 | > 100 | > 100 |  |  |  |  |  |  |  |
| COC(=O)c1c(OC(C)=O)ccc2c1c1c(n2C)C(=O)c2ccccc2C1=O | > 100 | 36.9 | > 100 | 44.8 | > 100 |  | 22.3 | 63 | > 100 |  |  |  |  |  |  |  |
| CC1(C)CC(C)(C)C1=NNC(N)=O | > 100 | > 100 | > 100 | > 100 | > 100 |  | > 100 | > 100 | > 100 |  |  |  |  |  |  |  |
| CCOC(=O)c1cc2c(C(=O)c3ccc([N+](=O)[O-])cc3)c(C(C)=O)ccc2[nH]1 | > 100 | > 100 | > 100 | > 100 | > 100 |  | > 100 | > 100 | > 100 |  |  |  |  |  |  |  |
| CSC1=N/C(=C\c2ccco2)C(=O)N1CN1CCOCC1 | > 100 | > 100 | > 100 | > 100 | > 100 |  | > 100 | > 100 | > 100 |  |  |  |  |  |  |  |
| CCOP(=O)(OCC)C1CC(n2cc(C)c(=O)[nH]c2=O)OC1CO (stereo unspecified) | > 100 | > 100 | > 100 | > 100 | > 100 |  | > 100 | > 100 | > 100 |  |  |  |  |  |  |  |
| CCN(C(=S)N[C@H](C(=O)N[C@@H](C)C(=O)OC)C(C)C)c1ccccc1 | > 100 | > 100 | 80.2 | > 100 | > 100 |  | > 100 | > 100 | > 100 |  |  |  |  |  |  |  |
| Cc1ccc2c(c1C)C(=O)/C(=C/c1ccccc1C(=O)O)C2 | > 100 | > 100 | > 100 | > 100 | > 100 |  | > 100 | > 100 | > 100 |  |  |  |  |  |  |  |
| O=C(OCCN=c1c2ccccc2ccc2ccccc12)c1ccc([N+](=O)[O-])cc1 | > 100 | > 100 | > 100 | > 100 | > 100 |  | > 100 | > 100 | > 100 |  |  |  |  |  |  |  |
| S=C1SCN(Cc2ccco2)CN1c1ccc(Br)cc1 | 34.5 | > 100 | 15.9 | 42.6 | 43.1 |  | 45.7 | 21.1 | 15.2 |  |  |  |  |  |  |  |
| N#Cc1c(-c2ccc(Cl)cc2)c2c(n(C3OC(CO)C(O)C(O)C3O)c1=S)CCC2 (stereo unspecified) | > 100 | 45.8 | 38.5 | 87.2 | 32.9 |  | > 100 | 74.3 | 34 |  |  |  |  |  |  |  |
| CC1(C)[C@H]2CC[C@]1(C)[C@H](OC(=O)NNC(=O)O[C@@H]1C[C@@H]3CC[C@@]1(C)C3(C)C)C2 | 34.1 | 23 | 17 | 33 | > 100 |  | 30.4 | 25.6 | 38.8 |  |  |  |  |  |  |  |
| C/C=C(/C)C(=O)O[C@H](C[C@@H](C)[C@H]1CC(c2ccoc2)OC1=O)[C@@]1(C)C(=O)CCC2O[C@]21C (stereo partly specified) | > 100 | > 100 | > 100 | > 100 | > 100 |  | > 100 | > 100 | > 100 |  |  |  |  |  |  |  |
| COC(=O)[C@H]1CO[C@H]2C/C(C)=C/CC/C(C)=C/CC[C@@]3(C)O[C@@H]3C[C@H]21 | > 50 | > 50 | 16.1 | > 50 | 34.9 |  | > 50 | 47.3 | 18.2 |  |  |  |  |  |  |  |
| CCOC(=O)c1c(N2CCCC2)ncn(Cc2ccccc2)c1=S | > 100 | > 100 | > 100 | > 100 | > 100 |  | > 100 | > 100 | > 100 |  |  |  |  |  |  |  |
| CC(=O)c1c(C(F)(F)F)n([O-])c2cc(Cl)c(Cl)cc2[n+]1=O | 3.29 | 2.96 | 3.42 | 2.11 | 3.87 |  | 0.498 | 3.19 | 2.58 |  |  |  |  |  |  |  |
| O=C1/C(=N\S(=O)(=O)c2ccccc2)C([n+]2ccc(Cc3ccccc3)cc2)=C([O-])c2ccccc21 | 3.49 | 13 | > 100 | 2.54 | 2.14 |  | 4.92 | 2.2 | 2.42 |  |  |  |  |  |  |  |
| Cc1c2c(n(CCc3ccc(Cl)cc3)c1C)NC(c1ccccc1)C(C#N)S2(=O)=O (stereo unspecified) | > 100 | > 100 | 47.8 | > 100 | > 100 |  | > 100 | > 100 | > 100 |  |  |  |  |  |  |  |
| Cc1cc(N2CCCC2)nc(N(CCNc2ccnc3cc(Cl)ccc23)Cc2ccco2)n1 | > 100 | 6.5 | > 100 | > 100 | > 100 | 2.5 | > 100 | 42.3 | 78.2 | 4.93 | 2.39 | 2.26 | 10.8 | 3.94 | 3.4 | 4.11 |
